Reference: BigSolDB 2.1
Values belong to the molecule of their own block, whether it stands above or below them.

solubility (mole fraction) (in water, 278.15 K): 3.22e-06 | solubility (mole fraction) (in water, 283.15 K): 4.29e-06 | solubility (mole fraction) (in water, 288.15 K): 4.86e-06 | solubility (mole fraction) (in water, 293.15 K): 6.26e-06 | solubility (mole fraction) (in water, 298.15 K): 6.59e-06 | solubility (mole fraction) (in water, 303.15 K): 7.16e-06 | solubility (mole fraction) (in water, 308.15 K): 7.68e-06
SMILES: Oc1cc(O)c2cc1Cc1cc(c(O)cc1O)Cc1cc(c(O)cc1O)Cc1cc(c(O)cc1O)C2

solubility (mole fraction) (in ethanol, 293.2 K): 1.27e-06 | solubility (mole fraction) (in ethanol, 303.2 K): 1.63e-06 | solubility (mole fraction) (in ethanol, 313.2 K): 1.93e-06 | solubility (mole fraction) (in ethanol, 323.2 K): 2.25e-06 | solubility (mole fraction) (in ethanol, 333.2 K): 2.63e-06
SMILES: Clc1ccc(-c2c3nc(c(-c4ccc(Cl)cc4)c4ccc([nH]4)c(-c4ccc(Cl)cc4)c4nc(c(-c5ccc(Cl)cc5)c5ccc2[nH]5)C=C4)C=C3)cc1

SMILES: Cc1ccccc1
solubility (mole fraction) (in water, 295.7 K): 0.000112

solubility (mole fraction) (in acetone, 303.15 K): 0.00721 | solubility (mole fraction) (in ethanol, 303.15 K): 0.0024 | solubility (mole fraction) (in ethyl acetate, 303.15 K): 0.00399 | solubility (mole fraction) (in isopropanol, 303.15 K): 0.00204
SMILES: CC(=O)OCC(=O)[C@@]12N=C(C)O[C@@H]1C[C@H]1[C@@H]3CCC4=CC(=O)C=C[C@]4(C)[C@H]3[C@@H](O)C[C@@]12C

solubility (mole fraction) (in water, 283.15 K): 0.000323 | solubility (mole fraction) (in water, 288.15 K): 0.000367 | solubility (mole fraction) (in water, 293.15 K): 0.000413 | solubility (mole fraction) (in water, 298.15 K): 0.000463 | solubility (mole fraction) (in water, 303.15 K): 0.000521 | solubility (mole fraction) (in water, 308.15 K): 0.000584 | solubility (mole fraction) (in water, 313.15 K): 0.000649 | solubility (mole fraction) (in water, 318.15 K): 0.000721 | solubility (mole fraction) (in water, 323.15 K): 0.000807
SMILES: C[C@@H](O)[C@H]1C(=O)N2C(C(=O)[O-])=C(SC3Cn4cnc[n+]4C3)[C@H](C)[C@H]12 (stereo partly specified)

solubility (mole fraction) (in ethanol, 278.15 K): 0.00047 | solubility (mole fraction) (in ethanol, 283.15 K): 0.000485 | solubility (mole fraction) (in ethanol, 293.15 K): 0.000866 | solubility (mole fraction) (in ethanol, 298.15 K): 0.00117 | solubility (mole fraction) (in ethanol, 303.15 K): 0.00207 | solubility (mole fraction) (in ethanol, 308.15 K): 0.0029 | solubility (mole fraction) (in ethanol, 313.15 K): 0.00428
SMILES: CC1(C)S[C@@H]2[C@H](NC(=O)COc3ccccc3)C(=O)N2[C@H]1C(=O)[O-].[K+]

solubility (mole fraction) (in acetone, 298.15 K): 0.00013 | solubility (mole fraction) (in ethanol, 298.15 K): 8.43e-06 | solubility (mole fraction) (in water, 298.15 K): 7.3e-10
SMILES: c1ccc(-c2cnc(-c3ccc(-c4ncc(-c5ccccc5)o4)cc3)o2)cc1

SMILES: c1ccc2c(c1)[nH]c1ccccc12
solubility (mole fraction) (in 1-chlorooctane, 298.15 K): 0.00242 | solubility (mole fraction) (in 1-chlorotetradecane, 298.15 K): 0.0024 | solubility (mole fraction) (in chlorocyclohexane, 298.15 K): 0.00291 | solubility (mole fraction) (in dibutyl ether, 298.15 K): 0.00501

solubility (mole fraction) (in 1,4-dioxane, 298.15 K): 0.261 | solubility (mole fraction) (in PEG-300, 298.15 K): 0.493 | solubility (mole fraction) (in ethanol, 298.15 K): 0.145 | solubility (mole fraction) (in ethyl acetate, 298.15 K): 0.138 | solubility (mole fraction) (in methanol, 298.15 K): 0.122 | solubility (mole fraction) (in water, 298.15 K): 0.0003
SMILES: O=C(O)c1ccccc1O

solubility (mole fraction) (in water, 298.15 K): 7e-09
SMILES: O=[N+]([O-])c1ccc(N/N=C/c2cccs2)c([N+](=O)[O-])c1

solubility (mole fraction) (in water, 283.15 K): 0.0035 | solubility (mole fraction) (in water, 288.15 K): 0.00384 | solubility (mole fraction) (in water, 293.15 K): 0.00417 | solubility (mole fraction) (in water, 298.15 K): 0.00459 | solubility (mole fraction) (in water, 303.15 K): 0.0051 | solubility (mole fraction) (in water, 308.15 K): 0.00562 | solubility (mole fraction) (in water, 313.15 K): 0.00613 | solubility (mole fraction) (in water, 318.15 K): 0.00667
SMILES: N[C@@H](Cc1cnc[nH]1)C(=O)O

solubility (mole fraction) (in water, 273.2 K): 1.97e-07 | solubility (mole fraction) (in water, 278.2 K): 2.95e-07 | solubility (mole fraction) (in water, 283.2 K): 4.38e-07 | solubility (mole fraction) (in water, 288.2 K): 5.71e-07 | solubility (mole fraction) (in water, 298.2 K): 1.06e-06
SMILES: C=C1CC[C@H](O)C/C1=C/C=C1\CCC[C@]2(C)[C@@H]([C@H](C)CCCC(C)C)CC[C@@H]12

solubility (mole fraction) (in water, 298.15 K): 1.6e-08
SMILES: O=[N+]([O-])c1ccc(N/N=C/c2ccc[nH]2)c([N+](=O)[O-])c1

solubility (mole fraction) (in PEG-400, 298.15 K): 0.0129 | solubility (mole fraction) (in PEG-400, 303.15 K): 0.0132 | solubility (mole fraction) (in PEG-400, 308.15 K): 0.0134 | solubility (mole fraction) (in PEG-400, 313.15 K): 0.0136 | solubility (mole fraction) (in PEG-400, 318.15 K): 0.0139 | solubility (mole fraction) (in n-propanol, 293.15 K): 3.88e-05 | solubility (mole fraction) (in n-propanol, 298.15 K): 4.71e-05 | solubility (mole fraction) (in n-propanol, 303.15 K): 5.87e-05 | solubility (mole fraction) (in n-propanol, 308.15 K): 7.21e-05 | solubility (mole fraction) (in n-propanol, 313.15 K): 9.13e-05 | solubility (mole fraction) (in propylene glycol, 298.15 K): 0.00047
SMILES: Nc1ccc(S(=O)(=O)Nc2ncccn2)cc1

solubility (mole fraction) (in methanol, 293.15 K): 0.00941 | solubility (mole fraction) (in methanol, 298.15 K): 0.0109 | solubility (mole fraction) (in methanol, 303.15 K): 0.0128 | solubility (mole fraction) (in methanol, 308.18 K): 0.015 | solubility (mole fraction) (in methanol, 313.15 K): 0.0175 | solubility (mole fraction) (in methanol, 318.15 K): 0.02
SMILES: CO[C@H]1O[C@H](CO)[C@@H](O)[C@H](O)[C@H]1O

solubility (mole fraction) (in water, 293.15 K): 5.05e-05 | solubility (mole fraction) (in water, 296.85 K): 6.15e-05 | solubility (mole fraction) (in water, 300.75 K): 8.19e-05 | solubility (mole fraction) (in water, 304.55 K): 8.52e-05 | solubility (mole fraction) (in water, 308.25 K): 9.71e-05 | solubility (mole fraction) (in water, 312.15 K): 0.000122 | solubility (mole fraction) (in water, 316.25 K): 0.000147
SMILES: CS(=O)(=O)c1ccc([C@@H](O)[C@@H](CF)NC(=O)C(Cl)Cl)cc1

solubility (mole fraction) (in water, 298.15 K): 5.19e-07
SMILES: C(=N\Nc1ccccc1)/c1cccs1
